In patent publication US9605002B2, “5,5-heteroaromatic anti-infective compounds” (priority 2012, dated 2017):
“And” between values parts separate entries of the source, which are not always exact repeats. Equal entries are not always repeated.

Key:
Assay in all cases: MIC against clinical Mtb strains
Format in all cases: cell-based
Conditions in all cases: Mycobacterium tuberculosis
[1] = tested on: XDR-TB resistant to HRESKO
[2] = tested on: MDR-TB resistant to HREZSKP
[3] = tested on: MDR-TB resistant to HRERb
[4] = tested on: MDR-TB resistant to HREKP
[5] = tested on: XDR-TB resistant to HREKO

| Compound | MIC90 [1] | MIC90 [2] | MIC90 [3] | MIC90 [4] | MIC90 [5] |
| --- | --- | --- | --- | --- | --- |
| O=[N+]([O-])c1cn2c(n1)OC[C@@H](OCc1ccc(OC(F)(F)F)cc1)C2 [PA-824, reference compound] | 0.86 µM and 0.31 µg/mL | 0.45 µM to 0.86 µM and 0.16 µg/mL to 0.31 µg/mL | 0.45 µM to 0.86 µM and 0.16 µg/mL to 0.31 µg/mL | 0.45 µM to 0.86 µM and 0.16 µg/mL to 0.31 µg/mL | 0.22 µM and 0.08 µg/mL |
| Cc1cn2c(C(=O)NCc3ccc(Oc4ccc(F)cc4)cc3)c(C)nc2s1 [ND-010081] | < 0.01 µM and < 0.025 µg/mL | 0.02 µM to 10 µM and 0.05 µg/mL to 25 µg/mL | 0.63 µM and 1.6 µg/mL | < 0.01 µM and < 0.025 µg/mL | < 0.01 µM and < 0.025 µg/mL |
